pIC50: −log10 of the molar value. Each block holds one compound with its values, some of them ahead of it.
Tested on: 519858-162-T-J1-PDC complex spheroid viability
Test: Anticancer human tumor 519858-162-T-J1-PDC patient-derived colon adenocarcinoma cell line growth inhibition [GQUAD]
Details: for pIC50: curve of first compound; for viability, T/C: stronger effect = lower value
Summary of the method: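 Multi-cell-type spheroids of tumor cells with HUVEC and mesenchymal stem cells, treated with drug combinations. Concentrations descend in half-log steps from near clinical Cmax, or from 10 microM where Cmax is unknown; viability read-out.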

[1] = second compound 0.0316 µM, first compound 0.0316 µM
[2] = second compound 0.0316 µM, first compound 0.1 µM
[3] = second compound 0.0316 µM, first compound 0.316 µM
[4] = second compound 0.0316 µM, first compound 1 µM
[5] = second compound 0.0316 µM, first compound 3.16 µM
[6] = second compound 0.0316 µM, first compound 10 µM
[7] = second compound 0.1 µM, first compound 0.0316 µM
[8] = second compound 0.1 µM, first compound 0.1 µM
[9] = second compound 0.1 µM, first compound 0.316 µM
[10] = second compound 0.1 µM, first compound 1 µM
[11] = second compound 0.1 µM, first compound 3.16 µM
[12] = second compound 0.1 µM, first compound 10 µM
[13] = second compound 0.316 µM, first compound 0.0316 µM
[14] = second compound 0.316 µM, first compound 0.1 µM
[15] = second compound 0.316 µM, first compound 0.316 µM
[16] = second compound 0.316 µM, first compound 1 µM
[17] = second compound 0.316 µM, first compound 3.16 µM
[18] = second compound 0.316 µM, first compound 10 µM
[19] = second compound 1 µM, first compound 0.0316 µM
[20] = second compound 1 µM, first compound 0.1 µM
[21] = second compound 1 µM, first compound 0.316 µM
[22] = second compound 1 µM, first compound 1 µM
[23] = second compound 1 µM, first compound 3.16 µM
[24] = second compound 1 µM, first compound 10 µM
[25] = second compound 3.16 µM, first compound 0.0316 µM
[26] = second compound 3.16 µM, first compound 0.1 µM
[27] = second compound 3.16 µM, first compound 0.316 µM
[28] = second compound 3.16 µM, first compound 1 µM
[29] = second compound 3.16 µM, first compound 3.16 µM
[30] = second compound 3.16 µM, first compound 10 µM
[31] = second compound 10 µM, first compound 0.0316 µM
[32] = second compound 10 µM, first compound 0.1 µM
[33] = second compound 10 µM, first compound 0.316 µM
[34] = second compound 10 µM, first compound 1 µM
[35] = second compound 10 µM, first compound 3.16 µM
[36] = second compound 10 µM, first compound 10 µM
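Note: spheroids exposed to compounds for 7 days.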
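Throughout, for viability, T/C: 100% = DMSO vehicle control viability.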

SMILES: O=C(c1cc(Cc2n[nH]c(=O)c3ccccc23)ccc1F)N1CCN(C(=O)C2CC2)CC1 + Cc1[nH]c2ccc(F)cc2c1-c1nc2c3cccnc3c3ncccc3c2[nH]1
pIC50 (second compound 0.0316 µM): < 5.00
pIC50 (second compound 0.1 µM): < 5.00
pIC50 (second compound 0.316 µM): < 5.00
pIC50 (second compound 1 µM): < 5.00
pIC50 (second compound 3.16 µM): > 7.50
pIC50 (second compound 10 µM): < 5.00
viability, T/C [1]: 122%
viability, T/C [2]: 85.5%
viability, T/C [3]: 82.7%
viability, T/C [4]: 66.6%
viability, T/C [5]: 68%
viability, T/C [6]: 111%
viability, T/C [7]: 110%
viability, T/C [8]: 85.3%
viability, T/C [9]: 87.7%
viability, T/C [10]: 102%
viability, T/C [11]: 103%
viability, T/C [12]: 63.6%
viability, T/C [13]: 105%
viability, T/C [14]: 97.9%
viability, T/C [15]: 81.9%
viability, T/C [16]: 100%
viability, T/C [17]: 75.6%
viability, T/C [18]: 97.1%
viability, T/C [19]: 82.7%
viability, T/C [20]: 100%
viability, T/C [21]: 102%
viability, T/C [22]: 81.2%
viability, T/C [23]: 69.9%
viability, T/C [24]: 95.3%
viability, T/C [25]: 49.2%
viability, T/C [26]: 63%
viability, T/C [27]: 92%
viability, T/C [28]: 59.2%
viability, T/C [29]: 79.8%
viability, T/C [30]: 71.1%
viability, T/C [31]: 86.1%
viability, T/C [32]: 69.9%
viability, T/C [33]: 52.6%
viability, T/C [34]: 81.6%
viability, T/C [35]: 51.8%
viability, T/C [36]: 53.7%

pIC50 (second compound 0.0316 µM): 5.81
pIC50 (second compound 0.1 µM): 5.76
pIC50 (second compound 0.316 µM): 6.76
pIC50 (second compound 1 µM): 6.63
pIC50 (second compound 3.16 µM): > 7.50
pIC50 (second compound 10 µM): > 7.50
SMILES: CC1COCCN1c1cc(-c2ccnn2C)c2ccnc(-c3ccn[nH]3)c2n1 (stereo unspecified) + Cc1cnc(CNC(=O)c2c(=O)c3ccc(N4CCCN(C)CC4)nc3n3c2sc2ccccc23)cn1
viability, T/C [1]: 98%
viability, T/C [2]: 58.7%
viability, T/C [3]: 77.4%
viability, T/C [4]: 60.4%
viability, T/C [5]: 38.9%
viability, T/C [6]: 24.4%
viability, T/C [7]: 58.7%
viability, T/C [8]: 82.7%
viability, T/C [9]: 95.9%
viability, T/C [10]: 67.7%
viability, T/C [11]: 29.1%
viability, T/C [12]: 30.9%
viability, T/C [13]: 112%
viability, T/C [14]: 52.6%
viability, T/C [15]: 49.8%
viability, T/C [16]: 44.2%
viability, T/C [17]: 28.3%
viability, T/C [18]: 36.6%
viability, T/C [19]: 57.7%
viability, T/C [20]: 62.4%
viability, T/C [21]: 43.1%
viability, T/C [22]: 38.1%
viability, T/C [23]: 28.2%
viability, T/C [24]: 26.2%
viability, T/C [25]: 44.2%
viability, T/C [26]: 33%
viability, T/C [27]: 37.4%
viability, T/C [28]: 37.9%
viability, T/C [29]: 42.9%
viability, T/C [30]: 29.8%
viability, T/C [31]: 45.6%
viability, T/C [32]: 41.2%
viability, T/C [33]: 26.7%
viability, T/C [34]: 29.1%
viability, T/C [35]: 28.8%
viability, T/C [36]: 32.5%

SMILES: CC(=O)O[C@H]1C(=O)[C@@]2(C)[C@H]([C@H](OC(=O)c3ccccc3)[C@]3(O)C[C@H](OC(=O)[C@H](O)[C@@H](NC(=O)c4ccccc4)c4ccccc4)C(C)=C1C3(C)C)[C@]1(OC(C)=O)CO[C@@H]1C[C@@H]2O + CN(C)c1ccc(Nc2c3ccc(NC(=O)CCN4CCCC4)cc3nc3cc(NC(=O)CCN4CCCC4)ccc23)cc1
pIC50 (second compound 0.0316 µM): < 5.00
pIC50 (second compound 0.1 µM): < 5.00
pIC50 (second compound 0.316 µM): < 5.00
pIC50 (second compound 1 µM): < 5.00
pIC50 (second compound 3.16 µM): < 5.00
pIC50 (second compound 10 µM): < 5.00
viability, T/C [1]: 84.6%
viability, T/C [2]: 95.5%
viability, T/C [3]: 137%
viability, T/C [4]: 86.5%
viability, T/C [5]: 61.9%
viability, T/C [6]: 119%
viability, T/C [7]: 74.1%
viability, T/C [8]: 134%
viability, T/C [9]: 89.5%
viability, T/C [10]: 82%
viability, T/C [11]: 111%
viability, T/C [12]: 98.4%
viability, T/C [13]: 89.7%
viability, T/C [14]: 86.5%
viability, T/C [15]: 96.8%
viability, T/C [16]: 69.7%
viability, T/C [17]: 92%
viability, T/C [18]: 115%
viability, T/C [19]: 87.4%
viability, T/C [20]: 74.9%
viability, T/C [21]: 70.7%
viability, T/C [22]: 64.5%
viability, T/C [23]: 84.8%
viability, T/C [24]: 86.3%
viability, T/C [25]: 79.1%
viability, T/C [26]: 68.1%
viability, T/C [27]: 70.8%
viability, T/C [28]: 55.3%
viability, T/C [29]: 75.9%
viability, T/C [30]: 84.6%
viability, T/C [31]: 68.2%
viability, T/C [32]: 62.4%
viability, T/C [33]: 63.9%
viability, T/C [34]: 55.1%
viability, T/C [35]: 80.3%
viability, T/C [36]: 72.7%

From PubChem BioAssay AID2060507 (Molecular Pharmacology Branch, DTP, NCI, 2025)
